# B1: OPN(ct): the C-terminal half of OPN after thrombin cleavage (protein)
# chain: SKSRSFQVSDEQYPDATDEDLTSHMKSGESKESLDVIPVAQLLSMPSDQDNNGKGSHESSQLDEPSLETHRLEHSKESQESADQSDVIDSQASSKASLEHQSHKFHSHKDKLVLDPKSKEDDRYLKFRISHELESSSSEVN
# Legend:
# osteosarcoma cells = assay: Modified Boyden chamber chemotaxis of osteosarcoma cells; assay type: cell-based; conditions: for Chemotactic activity (in words): osteosarcoma cells
# Procedure: Purified OPN (˜0.5 mg) was digested with trypsin (2% w/w) in 0.2 ml of 50 mM NH4HCO3, pH 8.0, for 20 hours at 37° C. before treatment of the reaction products with 50 μl of 100% H2O+0.1% trifluoroacidic acid (TFA) and resolution of the peptides by HPLC chromatography on C-18 column (25×0.46 cm). After injection the column was washed for 10 min, followed by linear gradient elution from 100% H2O+0.1% TFA to 60% CH3CN+0.55% TFA over 120 min, with a second gradient from 60% CH3CN to 80% CN3CN over 30 min at a flow rate of 0.5 ml/min. The absorbance at 219 nm was recorded continuously by an on-line chart recorder/integrator using Gilson HM Holochrome detector, and fractions of 0.5 ml were collected. Each peak was then tested for mediation of chemotaxis or for its ability to inhibit OPN mediated chemotaxis using the chemotactic assay described in Example 4 below. Furthermore, each peak was also tested for its ability to promote attachment of CD44^+ or αvβx cells.
# Positive peaks from tryptic digest were sequenced by gas-phase automated sequenator. Chemotactic peptides corresponding to the positive sequences were synthesized and the resulting synthetic peptides were then tested for their ability to promote either chemotaxis or to inhibit the chemotaxis to OPN as described in Example 4. Chemical synthesis of peptides provides a convenient method to test the sequence specificity and minimal length of the chemotactic peptides.
# In a modified Boyden chamber, both surfaces of polycarbonate filters (pore size, 8 μm) were coated with gelatin (100 μg/ml, overnight) before 1×10^3 osteosarcoma cells were added in 500 μl to the upper chamber and incubated at 37° C. in the presence or absence of chemotactic agents in the lower chamber. After two hours, the membranes were fixed in methanol and stained with hematoxilin/toluidine blue. Responding cells on the lower surface of the filter were counted microscopically and evaluated in triplicates. Random migration was assessed by counting the number of cells that migrated to the lower surface of the filter when excess chemotactic molecule was added to the upper chamber.
# peritoneal exudate cells = assay: In vivo cellular migration into the peritoneum after intraperitoneal injection (peritoneal exudate, flow cytometry); parameters: species or system Mice
# Procedure: Mice were injected intraperitoneally with varying dosages of K7 osteosarcoma-derived osteopontin. All injection volumes were 200 μl. Injections of vehicle alone (PBS) served as negative controls and vehicle plus 20 μg lipopolysaccharide (LPS) injections served as positive controls for elicitation of peritoneal exudates.
# Mice were sacrificed by CO2-asphyxiation at varying times following injection. Immediately after sacrifice, peritoneal exudate was recovered by intraperitoneal injection and recovery of 10 mL PBS. The lavage procedure was performed twice on each mouse. Following this, red blood cells were lysed by hypotonic lysis with ACK lysis buffer (0.15 M NH4Cl, 1.0 mM KHCO3, 0.1 mM Na2EDTA, pH 7.4) for 5 minutes at room temperature, and the preparation was washed in DMEM, 5% FBS. Cells were resuspended in DMEM, 5% FBS for fluorescent antibody staining.
# Each sample of cells to be analyzed for specific surface markers was suspended in DMEM, 5% FBS at a concentration of 0.2 to 1 million cells in 50 μl. Fluorescence-labeled antibodies were added at 1 μg/1×10^6 cells, and incubated with the cells for 30 minutes at 4° C. Samples were washed twice with 200 μl of PBS following antibody staining and fixed with 500 μl of 2% paraformaldehyde in PBS. Peritoneal exudate cells were analyzed by dual-color flow cytometry for expression of CD44 (PE), CD11b (Mac-1, FITC, macrophage marker), B220 (FITC, B-cell marker), and CD3 (FITC, T-cell marker). All antibodies were purchased from PharMingen and flow cytometric analysis was done using a Coulter EPICS flow cytometer. Controls for non-specific binding and single color controls were included.
# [1] = Table 2, substance in lower chamber, upper chamber OPN
# [2] = Table 2, substance in lower chamber, upper chamber PBS
# [3] = Table 2, substance in lower chamber, upper chamber SP64
# [4] = Table 2, substance in lower chamber, upper chamber peptide 51
# [5] = Table 2, substance in upper chamber, lower chamber PBS
# [6] = Table 3, substance in lower chamber, upper chamber Ab64
# [7] = Table 3, substance in lower chamber, upper chamber OPN
# [8] = Table 3, substance in lower chamber, upper chamber PBS
# [9] = Table 3, substance in lower chamber, upper chamber peptide 51
# [10] = Table 3, substance in upper chamber, lower chamber PBS
# [11] = 6 hours after intraperitoneal injection
# [12] = Table 4, substance in lower chamber, upper chamber OPN
# [13] = Table 4, substance in lower chamber, upper chamber OPN(ct)
# [14] = Table 4, substance in lower chamber, upper chamber OPN(nT)
# [15] = Table 4, substance in lower chamber, upper chamber PBS, averages from at least three experiments
# [16] = Table 4, substance in upper chamber, lower chamber PBS
Molecule,Chemotactic activity (in words) (osteosarcoma cells),Responding cells on the lower surface of the filter (osteosarcoma cells; [1]),Responding cells on the lower surface of the filter (osteosarcoma cells; [2]),Responding cells on the lower surface of the filter (osteosarcoma cells; [3]),Responding cells on the lower surface of the filter (osteosarcoma cells; [4]),Responding cells on the lower surface of the filter (osteosarcoma cells; [5]),Responding cells on the lower surface of the filter (osteosarcoma cells; [6]),Responding cells on the lower surface of the filter (osteosarcoma cells; [7]),Responding cells on the lower surface of the filter (osteosarcoma cells; [8]),Responding cells on the lower surface of the filter (osteosarcoma cells; [9]),Responding cells on the lower surface of the filter (osteosarcoma cells; [10]),Responding cells on the lower surface of the filter (osteosarcoma cells; [12]),Responding cells on the lower surface of the filter (osteosarcoma cells; [13]),Responding cells on the lower surface of the filter (osteosarcoma cells; [14]),Responding cells on the lower surface of the filter (osteosarcoma cells; [15]),Responding cells on the lower surface of the filter (osteosarcoma cells; [16]),further results
VLDPK (OTHER INFORMATION: Osteopontin Derived Peptide) [peptide E],retains some chemotactic activity,,,,,,,,,,,,,,,,Chemotactic activity (in words) (osteosarcoma cells; listed as VLDPK): retains some chemotactic properties
"LVLDPK (OTHER INFORMATION: Osteopontin derived peptide) [peptide 51, chemotactic tryptic peptide of osteopontin, also synthesized]",showed chemotactic properties,88,128,47,51,9,62,187,243,109,8,,,,,,"Competition with OPN for the migration of cells (osteosarcoma cells): competes with OPN; Responding cells on the lower surface of the filter (osteosarcoma cells; Table 1, substance in lower chamber, upper chamber PBS): 68; Responding cells on the lower surface of the filter (osteosarcoma cells; Table 1, substance in lower chamber, upper chamber peptide 49): 83; Responding cells on the lower surface of the filter (osteosarcoma cells; Table 1, substance in lower chamber, upper chamber peptide 50): 56; Responding cells on the lower surface of the filter (osteosarcoma cells; Table 1, substance in lower chamber, upper chamber peptide 51): 32; Responding cells on the lower surface of the filter (osteosarcoma cells; Table 1, substance in lower chamber, upper chamber peptide 52): 78; Responding cells on the lower surface of the filter (osteosarcoma cells; Table 1, substance in lower chamber, upper chamber peptide 53): 62; Responding cells on the lower surface of the filter (osteosarcoma cells; Table 1, substance in upper chamber, lower chamber PBS): 13"
osteopontin [OPN],chemotax toward,43,118,45,32,21,51,94,217,65,14,43,58,115,98,21,"Dose of peak response of cellular infiltrate (peritoneal exudate cells; [11]): around 13 μg; Number of CD3+ and B220+ cells in the infiltrate (peritoneal exudate cells; [11]): only marginally elevated; Number of Mac-1+ cells in the infiltrate over basal levels (peritoneal exudate cells; [11]): increased fivefold; Cellular infiltrate in the peritoneum (in words) (peritoneal exudate cells; 6 hours after intraperitoneal injection, dose titration): dose dependent increase; Dose of peak CD44+ Mac1+ cell response (peritoneal exudate cells; intraperitoneal injection): around 7 μg; Peritoneal influx of cells (peritoneal exudate cells; intraperitoneal injection, mice): 1.16 million cells"
KFHSHKDKLVLDPKSK (OTHER INFORMATION: Osteopontin Derived Peptide) [SP64],,74,117,66,40,4,,,,,,,,,,,
LVLAPK (OTHER INFORMATION: Osteopontin Derived Peptide) [mutant of peptide 51 with aspartic acid replaced],failed to induce chemotaxis,,,,,,,,,,,,,,,,
B1,chemotax toward,,,,,,,,,,,74,31,76,117,156,

# Reference: patent publication US6686444B2, “Osteopontin derived chemotactic peptides and methods of use” (Children's Medical Center Corporation, priority 1996, dated 2004)
